From US20220177477A1 (Central China Normal University, priority 2019, published 2022)
pIC50: −log10 of the molar value. Like-named read-outs stand apart in the source and are kept apart here.

Columns and labels:
[1] = Drug metabolism study in rats, oral administration; details: rat
[2] = Drug metabolism study in rats, intravenous administration; details: rat, plasma, iv, 1 mg/kg
[3] = molecular target: T1, TRKB (Homo sapiens, UniProt Q16620); test: In vitro biochemical HTRF KinEASE kinase inhibition, TRKB; details: wild-type kinase, final ATP 2.56 μmol/L
T1 construct: purchased Carna Biosciences 08-187
T1 sequence (Q16620 32-822): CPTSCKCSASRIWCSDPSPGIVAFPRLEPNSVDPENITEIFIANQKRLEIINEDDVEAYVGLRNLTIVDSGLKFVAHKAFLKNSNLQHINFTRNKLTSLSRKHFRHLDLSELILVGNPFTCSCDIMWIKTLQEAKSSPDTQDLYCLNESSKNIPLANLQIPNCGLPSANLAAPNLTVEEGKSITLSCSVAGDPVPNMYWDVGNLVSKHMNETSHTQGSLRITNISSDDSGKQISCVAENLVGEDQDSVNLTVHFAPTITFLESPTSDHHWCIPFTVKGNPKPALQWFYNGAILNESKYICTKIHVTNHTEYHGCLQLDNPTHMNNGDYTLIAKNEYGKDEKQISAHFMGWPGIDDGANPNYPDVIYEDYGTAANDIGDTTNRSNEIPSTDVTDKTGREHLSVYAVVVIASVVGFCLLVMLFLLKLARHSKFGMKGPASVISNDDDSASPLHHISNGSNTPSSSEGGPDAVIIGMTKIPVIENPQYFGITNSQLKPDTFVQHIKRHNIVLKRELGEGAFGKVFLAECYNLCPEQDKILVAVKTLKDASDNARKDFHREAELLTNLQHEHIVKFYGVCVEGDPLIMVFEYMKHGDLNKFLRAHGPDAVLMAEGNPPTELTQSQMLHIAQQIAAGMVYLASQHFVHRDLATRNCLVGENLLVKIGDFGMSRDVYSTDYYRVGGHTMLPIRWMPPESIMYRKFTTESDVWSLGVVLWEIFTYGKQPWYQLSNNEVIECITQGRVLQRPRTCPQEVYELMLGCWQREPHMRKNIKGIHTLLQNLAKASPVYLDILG
Protocol: The material and the method are as follows: wild-type kinases such as TRKA, TRKB and TRKC, and mutant kinases such as TRKA-G595R, TRKA-G667C, TRKA-F589L, TRKC-G623R and TRKC-G696A, and are derived from Carna Biosciences 08-186, 08-187, 08-197; HTRF KinEASE TKkit (Cisbio 62TKO PEC); 384 well plates (Greiner corporation); ATP (Life technologies PV 3227), MgCl2 (sigma); PHERAstar FS Multifunctional microplate reader (BMG Co.); low speed centrifuge (StaiteXiangyi corporation); incubator (Binder company).
Preparing a compound working solution: the dispensed compounds were removed from the freezer prior to testing and diluted to 100× concentration with pure DMSO; then the compound was diluted to the desired concentration of 4× with deionized water;
Preparation of 1.33× enzyme buffer (enzyme buffer): 5× enzyme buffer (from HTRF kit) was diluted to 1.33× with deionized water and the corresponding ingredients were added at a final concentration of 1.33×: 1.33 mmol/L Dithiothreitol (DTT), 1.33 mmol/L MnCl2, 6.65 mmol/L MgCl2 and 39.9 nmol/L SEB;
Preparation of a kinase working solution: TRKA, TRKB and TRKC were diluted with 1.33× enzyme buffer to the required concentrations of 2× of 0.404 ng/μL, 0.304 ng/μL and 0.236 ng/μL, respectively;
Preparing a substrate working solution: a mixture of TK Substrate Blr diluted to the desired final concentration of 4× (from HTRF kit) and ATP (10 mM) with 1.33× enzyme buffer; the final ATP concentrations for TRKA, TRKB, and TRKC were: 3.727 μmol/L, 2.56 μmol/L and 2.526 μmol/L. The TK Substrate-biotin (from HTRF KinEASE TKkit) final concentrations were all: 0.2 μmol/L.
Preparing a detection working solution: 16.67 μmol/L of Streptavidin-XL665 (Streptavidin-XL 665) were diluted to the desired final concentration of 4× with HTRF test buffer and then mixed with an equal volume of Antibody-europium Cryptate (Antibody-Cryptate) (both from HTRF kits).
An enzyme reaction step: add 4 μL of kinase working solution to each well of a low volume 384 microwell plate along with 4 μL of 1.33× enzyme buffer as a Negative control (Negative); add 2 μl of compound working solution to the wells, while adding 2 μl of […] aqueous solution as a zero compound concentration control (i.e., Positive control, Positive); incubating at 25° C. for 5 min; add 2 μL of substrate working solution to the wells to start the enzymatic reaction, shake the reaction for 30 min at 37° C.
HTRF reagent detection step: adding […] to the hole to terminate the reaction; reacting for 1 h at 25° C.;
Reading of HTRF signal: the PHERAstar FS reading is adopted to detect signals, and the corresponding setting of the instrument is as follows:
For the raw data read out per well, the ratio=665 nm/620 nm;
Calculation of inhibition rate:
Calculation of IC50 values: with the logarithm of the compound concentration as abscissa and the inhibition as ordinate, a non-linear curve was fitted in GraphPad Prism 5: log (inhibitor) vs. response—Variable slope, and calculating the concentration of the compound to be detected, namely IC50, when the enzyme activity inhibition rate is 50%.

[4] = molecular target: T2, TRKC (Homo sapiens, UniProt Q16288); test: In vitro biochemical HTRF KinEASE kinase inhibition, TRKC; details: wild-type kinase, final ATP 2.526 μmol/L
T2 construct: purchased Carna Biosciences 08-197
T2 sequence (Q16288 32-825 isoform Q16288-3 limits assumed): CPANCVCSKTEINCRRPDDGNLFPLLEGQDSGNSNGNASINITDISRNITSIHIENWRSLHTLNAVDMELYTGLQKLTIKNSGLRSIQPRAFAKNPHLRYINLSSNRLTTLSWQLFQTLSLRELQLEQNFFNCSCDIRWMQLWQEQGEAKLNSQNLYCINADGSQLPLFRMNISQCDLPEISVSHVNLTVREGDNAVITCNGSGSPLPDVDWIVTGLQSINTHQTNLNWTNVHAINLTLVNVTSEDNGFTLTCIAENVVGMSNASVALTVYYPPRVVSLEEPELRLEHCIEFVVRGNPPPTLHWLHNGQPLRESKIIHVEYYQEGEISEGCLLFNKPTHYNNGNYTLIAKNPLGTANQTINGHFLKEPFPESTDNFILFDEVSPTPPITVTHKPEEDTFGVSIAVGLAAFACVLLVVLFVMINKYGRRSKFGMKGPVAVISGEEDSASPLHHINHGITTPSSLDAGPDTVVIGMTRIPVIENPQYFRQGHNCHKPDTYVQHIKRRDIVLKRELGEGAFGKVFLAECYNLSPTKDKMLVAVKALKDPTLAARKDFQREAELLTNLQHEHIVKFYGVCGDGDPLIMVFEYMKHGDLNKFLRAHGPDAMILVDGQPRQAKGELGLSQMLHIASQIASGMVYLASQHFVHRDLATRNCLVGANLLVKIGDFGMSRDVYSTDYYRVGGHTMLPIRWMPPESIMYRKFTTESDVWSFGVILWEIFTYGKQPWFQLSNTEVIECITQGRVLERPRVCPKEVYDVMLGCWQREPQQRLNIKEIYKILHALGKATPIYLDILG

[5] = molecular target: T3, TRKA (Homo sapiens, UniProt P04629); test: In vitro biochemical HTRF KinEASE kinase inhibition, TRKA
T3 construct: purchased Carna Biosciences 08-186
T3 sequence (P04629 33-796): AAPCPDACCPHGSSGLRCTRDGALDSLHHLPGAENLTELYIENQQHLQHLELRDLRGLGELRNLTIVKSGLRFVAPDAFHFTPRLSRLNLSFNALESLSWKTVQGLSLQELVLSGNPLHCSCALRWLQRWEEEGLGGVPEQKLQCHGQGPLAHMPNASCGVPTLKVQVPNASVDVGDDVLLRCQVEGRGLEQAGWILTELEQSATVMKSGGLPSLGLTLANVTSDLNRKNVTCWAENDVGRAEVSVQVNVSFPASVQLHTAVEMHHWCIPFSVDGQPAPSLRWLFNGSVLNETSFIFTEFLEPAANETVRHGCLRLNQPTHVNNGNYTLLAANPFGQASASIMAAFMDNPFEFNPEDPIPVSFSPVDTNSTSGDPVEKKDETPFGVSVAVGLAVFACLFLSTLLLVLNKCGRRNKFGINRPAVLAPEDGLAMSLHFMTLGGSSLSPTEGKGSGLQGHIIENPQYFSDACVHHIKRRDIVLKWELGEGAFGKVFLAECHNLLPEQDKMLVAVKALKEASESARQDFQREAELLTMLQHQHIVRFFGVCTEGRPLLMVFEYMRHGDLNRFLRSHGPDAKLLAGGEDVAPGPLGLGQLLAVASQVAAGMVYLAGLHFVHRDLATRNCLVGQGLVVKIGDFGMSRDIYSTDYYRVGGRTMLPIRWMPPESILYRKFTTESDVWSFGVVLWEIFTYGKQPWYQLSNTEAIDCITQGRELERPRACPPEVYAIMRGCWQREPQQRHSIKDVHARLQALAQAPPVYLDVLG

[6] = wild-type kinase, final ATP 3.727 μmol/L, read-out: TRKA IC50

Row | SMILES | pIC50 [5, 6] | further results
1 | C[C@@H](Nc1ccn2ncc(-c3cnn(C)c3)c2n1)c1cc(F)ccc1OCC(F)F [Compound 2, (R)-N-(1-(2-(2,2-difluoroethoxy)-5-fluorophenyl)ethyl)-3-(1-methyl-1H-pyrazol-4-yl) pyrazolo [1,5-a] pyrimidin-5-amine] |  | CL ([1]; oral 5 mg/kg): 168.7 mL/min/kg; Vz ([1]; oral 5 mg/kg): 37.61 L/kg; AUC(0-t) ([1]; plasma, po, 5 mg/kg): 533 ng·h/mL; Cmax ([1]; plasma, po, 5 mg/kg): 150 ng/mL; MRT last ([1]; plasma, po, 5 mg/kg): 2.62 h; Tmax ([1]; plasma, po, 5 mg/kg): 0.67 h; bioavailability ([1]; plasma, po, 5 mg/kg): 30.2%; half-life ([1]; plasma, po, 5 mg/kg): 2.85 h; AUC(0-t) [2]: 353 ng·h/mL; Cmax [2]: 298 ng/mL; MRT last [2]: 1.49 h; Vd [2]: 6.8 L/kg; clearance [2]: 46 mL/min/kg; half-life [2]: 1.71 h; pIC50 [3]: 8.55
2 | CC(Nc1ccn2ncc(-c3cnn(C4CC4)c3)c2n1)c1cc(F)ccc1OCC(F)F (centres unmarked) [Compound 4, 3-(1-cyclopropyl-1H-pyrazol-4-yl)-N-(1-(2-(2,2-difluoroethoxy)-5-fluorophenyl)ethyl) pyrazolo [1,5-a] pyrimidin-5-amine] | 7.91 | pIC50 [4]: 7.60; pIC50 [3]: 7.80
3 | CC(Nc1ccn2ncc(-c3cnn(C(C)C)c3)c2n1)c1cc(F)ccc1OCCF (centres unmarked) [Compound a13-20, N-(1-(5-fluoro-2-(2-fluoroethoxy)phenyl)ethyl)-3-(1-isopropyl-1H-pyrazol-4-yl) pyrazolo [1,5-a] pyrimidin-5-amine] | 7.69 | 
4 | CC(Nc1ccn2ncc(-c3cnn(C4CC4)c3)c2n1)c1cc(F)ccc1OCCF (centres unmarked) [Compound a14-21, 3-(1-cyclopropyl-1H-pyrazol-4-yl)-N-(1-(5-fluoro-2-(2-fluoroethoxy)phenyl)ethyl) pyrazolo [1,5-a] pyrimidin-5-amine] | 7.92 | 
5 | CC(Nc1ccn2ncc(-c3cnn(C4CCCCC4O)c3)c2n1)c1cc(F)ccc1OCCF (centres unmarked) [Compound a18-25, 2-(4-(5-((1-(5-fluoro-2-(2-fluoroethoxy)phenyl)ethyl)amino)pyrazolo [1,5-a]pyrimidin-3-yl)-1H-pyrazol-1-yl) cyclohexan-1-ol] | 8.05 | 
6 | CC(Nc1ccn2ncc(-c3cnn(C4CCOCC4)c3)c2n1)c1cc(F)ccc1OCCF (centres unmarked) [Compound a19-26, N-(1-(5-fluoro-2-(2-fluoroethoxy)phenyl)ethyl)-3-(1-(tetrahydro-2H-pyran-4-yl)-1H-pyrazol-4-yl) pyrazolo [1,5-a] pyrimidin-5-amine] | 7.80 | 
7 | CC(Nc1ccn2ncc(-c3cnn(S(C)(=O)=O)c3)c2n1)c1cc(F)ccc1OCCF (centres unmarked) [Compound a22-29, N-(1-(5-fluoro-2-(2-fluoroethoxy)phenyl)ethyl)-3-(1-(methylsulfonyl)-1H-pyrazol-4-yl) pyrazolo [1,5-a] pyrimidin-5-amine] | 7.84 | 
8 | CC(Nc1ccn2ncc(-c3cnn(C4CCOCC4)c3)c2n1)c1cc(F)ccc1OCCCF (centres unmarked) [Compound a25-35, N-(1-(5-fluoro-2-(3-fluoropropoxy)phenyl)ethyl)-3-(1-(tetrahydro-2H-pyran-4-yl)-1H-pyrazol-4-yl) pyrazolo [1,5-a] pyrimidin-5-amine] | 7.61 | 
9 | CC(Nc1ccn2ncc(-c3cnn(C)c3)c2n1)c1cc(F)ccc1OCC1CCOCC1 (centres unmarked) [Compound a28-43, N-(1-(5-fluoro-2-((tetrahydro-2H-pyran-4-yl)methoxy)phenyl)ethyl)-3-(1-methyl-1H-pyrazol-4-yl) pyrazolo [1,5-a] pyrimidin-5-amine] | 6.96 | 
10 | CC(Nc1ccn2ncc(-c3cn[nH]c3)c2n1)c1cc(F)ccc1O (centres unmarked) [Compound b1-1, 2-(1-((3-(1H-pyrazol-4-yl)pyrazolo [1,5-a]pyrimidin-5-yl)amino)ethyl)-4-fluorophenol] | 8.02 | 
11 | COc1ccc(F)cc1C(C)Nc1ccn2ncc(-c3cn[nH]c3)c2n1 (centres unmarked) [Compound b2-5, N-(1-(5-fluoro-2-methoxyphenyl)ethyl)-3-(1H-pyrazol-4-yl) pyrazolo [1,5-a]pyrimidin-5-amine] | 7.82 | 
12 | COCCOc1ccc(F)cc1C(C)Nc1ccn2ncc(-c3cn[nH]c3)c2n1 (centres unmarked) [Compound b6-15, N-(1-(5-fluoro-2-(2-methoxyethoxy)phenyl)ethyl)-3-(1H-pyrazol-4-yl) pyrazolo [1,5-a] pyrimidin-5-amine] | 7.62 | 
13 | CC(Nc1ccn2ncc(-c3cn[nH]c3)c2n1)c1cc(F)ccc1OCC#N (centres unmarked) [Compound b11-36, 2-(2-(1-((3-(1H-pyrazol-4-yl)pyrazolo [1,5-a]pyrimidin-5-yl)amino)ethyl)-4-fluorophenoxy) acetonitrile] |  | pIC50 [5]: 7.05
14 | CC(Nc1ccn2ncc(-c3cn[nH]c3)c2n1)c1cc(F)ccc1OCC1CCOCC1 (centres unmarked) [Compound b15-42, N-(1-(5-fluoro-2-((tetrahydro-2H-pyran-4-yl)methoxy)phenyl)ethyl)-3-(1H-pyrazol-4-yl) pyrazolo [1,5-a] pyrimidin-5-amine] | 7.26 | 
15 | CC(Nc1ccn2ncc(-c3cn[nH]c3)c2n1)c1cc(F)ccc1OCCN1CCOCC1 (centres unmarked) [Compound b16-44, N-(1-(5-fluoro-2-(2-morpholinoethoxy)phenyl)ethyl)-3-(1H-pyrazol-4-yl) pyrazolo [1,5-a] pyrimidin-5-amine] | 6.44 | 

More lines, main results first:

Row | pIC50 [5, 6] | SMILES | further results
16 | 8.24 | CC(Nc1ccn2ncc(-c3cnn(C(F)F)c3)c2n1)c1cc(F)ccc1OCC(F)F (centres unmarked) [Compound 3, N-(1-(2-(2,2-difluoroethoxy)-5-fluorophenyl)ethyl)-3-(1-(difluoromethyl)-1H-pyrazol-4-yl) pyrazolo [1,5-a] pyrimidin-5-amine] | pIC50 [4]: 8.15; pIC50 [3]: 8.32
17 | 8.48 | C[C@@H](Nc1ccn2ncc(-c3cnn(CC#N)c3)c2n1)c1cc(F)ccc1OCCF [Compound a12-19, (R)-2-(4-(5-((1-(5-fluoro-2-(2-fluoroethoxy)phenyl)ethyl)amino)pyrazolo [1,5-a]pyrimidin-3-yl)-1H-pyrazol-1-yl) acetonitrile] | 
18 | 8.10 | CC(Nc1ccn2ncc(-c3cnn(CCO)c3)c2n1)c1cc(F)ccc1OCCF (centres unmarked) [Compound a15-22, 2-(4-(5-((1-(5-fluoro-2-(2-fluoroethoxy)phenyl)ethyl)amino)pyrazolo [1,5-a]pyrimidin-3-yl)-1H-pyrazol-1-yl) ethanol] | 
19 | 8.05 | CC(Nc1ccn2ncc(-c3cnn(CC(F)F)c3)c2n1)c1cc(F)ccc1OCCF (centres unmarked) [Compound a16-23, 3-(1-(2,2-difluoroethyl)-1H-pyrazol-4-yl)-N-(1-(5-fluoro-2-(2-fluoroethoxy)phenyl)ethyl) pyrazolo [1,5-a] pyrimidin-5-amine] | 
20 | 8.12 | CC(Nc1ccn2ncc(-c3cnn(C4CCCC4O)c3)c2n1)c1cc(F)ccc1OCCF (centres unmarked) [Compound a17-24, 2-(4-(5-((1-(5-fluoro-2-(2-fluoroethoxy)phenyl)ethyl)amino)pyrazolo [1,5-a]pyrimidin-3-yl)-1H-pyrazol-1-yl) cyclopentan-1-ol] | 
21 | 8.55 | C[C@@H](Nc1ccn2ncc(-c3cnn(C4CCCCO4)c3)c2n1)c1cc(F)ccc1OCCF (stereo partly drawn) [Compound a20-27, N-((R)-1-(5-fluoro-2-(2-fluoroethoxy)phenyl)ethyl)-3-(1-(tetrahydro-2H-pyran-2-yl)-1H-pyrazol-4-yl) pyrazolo [1,5-a] pyrimidin-5-amine] | 
22 | 8.28 | CC(=O)n1cc(-c2cnn3ccc(NC(C)c4cc(F)ccc4OCCF)nc23)cn1 (centres unmarked) [Compound a21-28, 1-(4-(5-((1-(5-fluoro-2-(2-fluoroethoxy)phenyl)ethyl)amino)pyrazolo [1,5-a]pyrimidin-3-yl)-1H-pyrazol-1-yl) ethanone] | 
23 | 8.38 | CC(Nc1ccn2ncc(-c3cn[nH]c3)c2n1)c1cc(F)ccc1OCC1CC1 (centres unmarked) [Compound b12-37, N-(1-(2-(cyclopropylmethoxy)-5-fluorophenyl)ethyl)-3-(1H-pyrazol-4-yl) pyrazolo [1,5-a] pyrimidin-5-amine] | 
